Measured values reported in patent US8481524B2, “c-MET protein kinase inhibitors” (Vertex Pharmaceuticals Incorporated, priority 2007, dated 2013).

Test system: c-Met in Snu5 gastric carcinoma cells
Test: Inhibition of c-Met activity in Snu5 gastric carcinoma cells (Snu5-AP1-Luc-Pest luciferase signal)
Type: cell-based, human
Conditions: Homo sapiens, SNU-5; Snu5-AP1-Luc-Pest cells, 6 hours, Steady Glo luminescence
Source text: Compounds of the invention were also screened for their ability to inhibit the Luciferase-induced signal in an engineered Snu5 cell line. Snu5 [obtained from American Type Culture Collection (Catalog number CRL-5973)] is a human gastric carcinoma known to overexpress c-Met, which is constitutively active. The cell line was transduced with the retrovirus, pCLPCX, which contains a genetic construct consisting of 6×AP1 promoter response elements and a luciferase gene having a C-terminal PEST sequence (proteolytic signal from mouse ornithine decarboxylase, which reduces the half-life of the luciferase). The constitutively active cMet activates cellular pathways (principally MAP kinase), resulting in AP-1-induced transcription of luciferase-PEST and translation into the final product, the activity of which is quantifiable as a chemiluminescent readout upon the addition of luciferin (Steady-Glo from Promega.). Residual luminescence is strongly correlated to the inhibition of c-Met. A stable cell line was obtained by selecting the new cell line (Snu5-AP1-Luc-Pest) with puromycin. The cells were grown in complete media [Iscove's media (Invitrogen) containing 10% fetal bovine serum (FBS, Hyclone) and penicillin/gentamycin (Invitrogen)]. Compounds of the invention were dissolved in DMSO to make 10 mM initial stock solutions. Serial dilutions in DMSO were then made and transferred to complete medium to make a 10× solution. The Snu5-AP1-Luc-Pest cells were counted and diluted to 200,000-cells/mL solution. The cells (90 μL) were added to each well in a 96-well black with clear bottom plate (Costar). Then 10 μL of the 10× compound solution was added to the cells in triplicate. The plates were incubated in a 37° C./5% CO2 incubator. After 6 hours, 50 μL of the Steady Glo reagent (Promega) was added to each well and placed on a plate shaker for 5 minutes to ensure that the cells were completely lysed. The plate was read on a 1450 Microbeta Liquid Scintillation and Luminescence Counter (Perkin-Elmer). The IC50s were calculated using a 4-parameter fit using the graphing software Prism (GraphPad).

Row | Structure (SMILES) | IC50 [nM]
1 | COc1ccc(-n2nnnc2-c2cc(-c3cc4c(s3)CCNCC4)cnc2N)c(F)c1 [Compound 51] | 100 to 1000
2 | COc1cc(F)c(-n2nnnc2-c2cc(-c3cc4c(s3)CCNCC4)cnc2N)c(F)c1 [Compound 54] | 100 to 1000
3 | COCc1ccc(-n2nnnc2-c2cc(-c3cnn(C4CCNCC4)c3)cnc2N)c(F)c1F [Compound 65] | 100 to 1000
4 | COc1ccc(-n2nnnc2-c2cc(-c3cc(C)c(C4CCCNC4)s3)cnc2N)c(F)c1F (centres unmarked) [Compound 66] | ≤ 100
5 | Cc1cc(-c2cnc(N)c(-c3nnnn3-c3ccc(C)c(F)c3F)c2)sc1C1CCCNC1 (centres unmarked) [Compound 67] | ≤ 100
